This data set in a line: log P by HPLC on a reversed-phase column (C 18), EEC Directive 79/831 Annex V.A8. Type of data set: physicochemical. The method, boiled down:
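Reversed-phase C18 HPLC at 40° C, 0.1% aqueous formic acid/acetonitrile gradient from 10% to 90% acetonitrile. log P derived from retention times by linear interpolation between unbranched alkan-2-ones (3–16 carbons) of known log P.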

The mark [1] stands for this setting: reversed-phase HPLC column (C 18), Table 3 (amines of formula II), HPLC C 18, 40° C., 0.1% aqueous formic acid and acetonitrile.
Setting [2] is: Table 3 (amines of formula II), HPLC C 18, 40° C., 0.1% aqueous formic acid and acetonitrile.
The mark [3] stands for this setting: reversed-phase HPLC column (C 18), Table 4 (aldehydes of formula IV), HPLC C 18, 40° C., 0.1% aqueous formic acid and acetonitrile.

Molecules are shown by their SMILES.

A word on the chromatographic logP: it is lipophilicity estimated from chromatographic retention. As for `CC1(c2ccc(Br)cc2CNC2CC2)CC1` [II.09, N-[5-bromo-2-(1-methylcyclopropyl)benzyl]cyclopropanamine], the chromatographic logP under setting [1] was 1.43.

`CC1(c2ccc(Cl)cc2CNC2CC2)CC1` [II.10, N-[5-chloro-2-(1-methylcyclopropyl)benzyl]cyclopropanamine]: the chromatographic logP under setting [1] amounted to 1.7.

`CC1(c2ccc(F)cc2CNC2CC2)CC1` [II.11, N-[5-fluoro-2-(1-methylcyclopropyl)benzyl]cyclopropanamine] registered a chromatographic logP under setting [1] of 1.37.

Under setting [1], `Cc1ccc(C2(C)CC2)c(CNC2CC2)c1` [II.12, N-[5-methyl-2-(1-methylcyclopropyl)benzyl]cyclopropanamine] registered a chromatographic logP of 1.38.

`Cc1ccc(C2(C)CC2)c(CNC2(C)CC2)c1` [II.13, 1-methyl-N-[5-methyl-2-(1-methylcyclopropyl)benzyl]cyclopropanamine]: under setting [1], the chromatographic logP was determined as 1.45.

With `Cc1ccc(C2(C)CC2)c(CNC2(C#N)CC2)c1` [II.14, 1-{[5-methyl-2-(1-methylcyclopropyl)benzyl]amino}cyclopropanecarbonitrile], under setting [1], the chromatographic logP turned out to be 4.07.

Molecule `C#CC1(c2ccc(Cl)cc2CNC2CC2)CC1` [II.16, N-[5-chloro-2-(1-ethynylcyclopropyl)benzyl]cyclopropanamine] registered a chromatographic logP under setting [1] of 1.22.

`C#CC1(c2ccc(C)cc2CNC2CC2)CC1` [II.17, N-[2-(1-ethynylcyclopropyl)-5-methylbenzyl]cyclopropanamine] registered a chromatographic logP under setting [1] of 1.15.

`C[Si](C)(C)C#CC1(c2ccc(Cl)cc2CNC2CC2)CC1` [II.18, N-(5-chloro-2-{1-[(trimethylsilyl)ethynyl]cyclopropyl}benzyl)cyclopropanamine] displayed a chromatographic logP under setting [2] of 2.07.

`Cc1ccc(C2(C#C[Si](C)(C)C)CC2)c(CNC2CC2)c1` [II.19, N-(5-methyl-2-{1-[(trimethylsilyl)ethynyl]cyclopropyl}benzyl)cyclopropanamine]: the chromatographic logP under setting [2] turned out to be 2.05.

In the case of `N#CC1(c2ccc(Cl)cc2CNC2CC2)CC1` [II.20, 1-{4-chloro-2-[(cyclopropylamino)methyl]phenyl}cyclopropanecarbonitrile], under setting [1], the chromatographic logP stood at 0.77.

For the molecule `Cc1ccc(C2(C#N)CC2)c(CNC2CC2)c1` [II.21, 1-{2-[(cyclopropylamino)methyl]-4-methylphenyl}cyclopropanecarbonitrile], under setting [1], the chromatographic logP stood at 1.19.

`COCC1(c2ccc(C)cc2CNC2CC2)CC1` [II.22, N-{2-[1-(methoxymethyl)cyclopropyl]-5-methylbenzyl}cyclopropanamine]: the chromatographic logP under setting [1] came out at 1.49.

Turning to `CCC1(c2ccccc2CNC2CC2)CC1` [II.23, N-[2-(1-ethylcyclopropyl)benzyl]cyclopropanamine], the chromatographic logP under setting [1] was 1.52.

With `CCC1(c2cc(C(F)(F)F)ccc2CNC2CC2)CC1` [II.24, N-[2-(1-ethylcyclopropyl)-4-(trifluoromethyl)benzyl]cyclopropanamine], the chromatographic logP under setting [1] is 1.95.

Under setting [1], `CCC1(c2cc(Cl)ccc2CNC2CC2)CC1` [II.25, N-[4-chloro-2-(1-ethylcyclopropyl)benzyl]cyclopropanamine] returned a chromatographic logP of 1.65.

In turn, `CCC1(c2cc(C)ccc2CNC2CC2)CC1` [II.26, N-[2-(1-ethylcyclopropyl)-4-methylbenzyl]cyclopropanamine] came in with a chromatographic logP under setting [1] of 1.47.

For the molecule `CCC1(c2cc(C)c(F)cc2CNC2CC2)CC1` [II.27, N-[2-(1-ethylcyclopropyl)-5-fluoro-4-methylbenzyl]cyclopropanamine], the chromatographic logP under setting [1] worked out at 1.69.

Under setting [1], `CCC1(c2ccc(C(F)(F)F)cc2CNC2CC2)CC1` [II.28, N-[2-(1-ethylcyclopropyl)-5-(trifluoromethyl)benzyl]cyclopropanamine] yielded a chromatographic logP of 1.82.

The molecule `CCC1(c2ccc(Cl)cc2CNC2CC2)CC1` [II.29, N-[5-chloro-2-(1-ethylcyclopropyl)benzyl]cyclopropanamine] gave a chromatographic logP under setting [1] of 1.66. The chromatographic logP values of the last two molecules are within 0.2 log units of each other.

In turn, `CCC1(c2ccc(C)cc2CNC2CC2)CC1` [II.30, N-[2-(1-ethylcyclopropyl)-5-methylbenzyl]cyclopropanamine] came in with a chromatographic logP under setting [1] of 1.63. The chromatographic logP values of the last two molecules are within 0.2 log units of each other.

As to `CCC1(c2cccc(F)c2CNC2CC2)CC1` [II.31, N-[2-(1-ethylcyclopropyl)-6-fluorobenzyl]cyclopropanamine], under setting [1], the chromatographic logP stood at 1.14.

In the case of `CCCC1(c2ccc(C)cc2CNC2CC2)CC1` [II.33, N-[5-methyl-2-(1-propylcyclopropyl)benzyl]cyclopropanamine], the chromatographic logP under setting [1] worked out at 1.81.

With `Cc1ccc(C2(Cl)CC2)c(CNC2CC2)c1` [II.34, N-[2-(1-chlorocyclopropyl)-5-methylbenzyl]cyclopropanamine], the chromatographic logP under setting [1] came out at 1.34.

In the case of `Cc1ccc(C2(C3CC3)CC2)c(CNC2CC2)c1` [II.35, N-{2-[1,1′-bi(cyclopropyl)-1-yl]-5-methylbenzyl}cyclopropanamine], the chromatographic logP under setting [1] amounted to 1.67.

The molecule `FC(F)C1(c2ccccc2CNC2CC2)CC1` [II.36, N-{2-[1-(difluoromethyl)cyclopropyl]benzyl}cyclopropanamine] had a chromatographic logP under setting [1] of 0.92.

Turning to `FC(F)C1(c2ccc(Br)cc2CNC2CC2)CC1` [II.37, N-{5-bromo-2-[1-(difluoromethyl)cyclopropyl]benzyl}cyclopropanamine], under setting [1], the chromatographic logP is 1.3.

With `FC(F)C1(c2ccc(Cl)cc2CNC2CC2)CC1` [II.38, N-{5-chloro-2-[1-(difluoromethyl)cyclopropyl]benzyl}cyclopropanamine], under setting [1], the chromatographic logP was found to be 1.16.

As a reminder, the logP is a log measure of how a compound divides between an organic and an aqueous phase. Read a low logP as lower lipophilicity. With `Fc1ccc(C2(C(F)F)CC2)c(CNC2CC2)c1` [II.39, N-{2-[1-(difluoromethyl)cyclopropyl]-5-fluorobenzyl}cyclopropanamine], the logP under setting [2] was 1.08. Besides, the chromatographic logP (reversed-phase HPLC column (C 18), preparation examples) worked out at 1.08.

Under setting [1], `Cc1ccc(C2(C(F)F)CC2)c(CNC2CC2)c1` [II.40, N-{2-[1-(difluoromethyl)cyclopropyl]-5-methylbenzyl}cyclopropanamine] came in with a chromatographic logP of 1.09.

Under setting [1], `FC(F)C1(c2cccc(Br)c2CNC2CC2)CC1` [II.41, N-{2-bromo-6-[1-(difluoromethyl)cyclopropyl]benzyl}cyclopropanamine] returned a chromatographic logP of 1.1.

Consider `Cc1ccc(C2(CC(C)C)CC2)c(CNC2CC2)c1` [II.43, N-[2-(1-isobutylcyclopropyl)-5-methylbenzyl]cyclopropanamine], for which the chromatographic logP under setting [1] was 2.15.

In turn, `FC(F)(F)C1(c2ccc(Cl)cc2CNC2CC2)CC1` [II.44, N-{5-chloro-2-[1-(trifluoromethyl)cyclopropyl]benzyl}cyclopropanamine] registered a chromatographic logP under setting [1] of 1.47.

In turn, `FC(F)(F)C1(c2ccccc2CNC2CC2)CC1` [II.45, N-{2-[1-(trifluoromethyl)cyclopropyl]benzyl}cyclopropanamine] registered a chromatographic logP under setting [1] of 1.25.

`Fc1ccc(C2(C(F)(F)F)CC2)c(CNC2CC2)c1` [II.46, N-{5-fluoro-2-[1-(trifluoromethyl)cyclopropyl]benzyl}cyclopropanamine] showed a chromatographic logP under setting [1] of 1.32.

`CC1(c2ccccc2C=O)CC1` [IV.01, 2-(1-methylcyclopropyl)benzaldehyde] gave a chromatographic logP under setting [3] of 3.02.

In turn, `CC1(c2cc(F)ccc2C=O)CC1` [IV.03, 4-fluoro-2-(1-methylcyclopropyl)benzaldehyde] came in with a chromatographic logP under setting [3] of 3.15.

For `Cc1ccc(C=O)c(C2(C)CC2)c1` [IV.04, 4-methyl-2-(1-methylcyclopropyl)benzaldehyde], the chromatographic logP under setting [3] was determined as 3.44.

`COc1ccc(C=O)c(C2(C)CC2)c1` [IV.05, 4-methoxy-2-(1-methylcyclopropyl)benzaldehyde] had a chromatographic logP under setting [3] of 2.92.

For `CC1(c2cc(F)c(F)cc2C=O)CC1` [IV.06, 4,5-difluoro-2-(1-methylcyclopropyl)benzaldehyde], the chromatographic logP under setting [3] was 3.44.

`Cc1cc(C=O)c(C2(C)CC2)cc1C` [IV.07, 4,5-dimethyl-2-(1-methylcyclopropyl)benzaldehyde] came in with a chromatographic logP under setting [3] of 3.85.

The molecule `COc1cc(C=O)c(C2(C)CC2)cc1OC` [IV.08, 4,5-dimethoxy-2-(1-methylcyclopropyl)benzaldehyde] displayed a chromatographic logP under setting [3] of 2.56.

With `CC1(c2ccc(Cl)cc2C=O)CC1` [IV.10, 5-chloro-2-(1-methylcyclopropyl)benzaldehyde], the chromatographic logP under setting [3] amounted to 3.76.

Under setting [3], `CC1(c2ccc(F)cc2C=O)CC1` [IV.11, 5-fluoro-2-(1-methylcyclopropyl)benzaldehyde] returned a chromatographic logP of 3.22.

In the case of `Cc1ccc(C2(C)CC2)c(C=O)c1` [IV.12, 5-methyl-2-(1-methylcyclopropyl)benzaldehyde], under setting [3], the chromatographic logP was found to be 3.55.

On to `N#CC1(c2ccc(Cl)cc2C=O)CC1` [IV.15, 1-(4-chloro-2-formylphenyl)cyclopropanecarbonitrile], for which the chromatographic logP under setting [3] is 2.35.

Molecule `CCC1(c2cc(C(F)(F)F)ccc2C=O)CC1` [IV.17, 2-(1-ethylcyclopropyl)-4-(trifluoromethyl)benzaldehyde] came in with a chromatographic logP under setting [3] of 4.29.

Under setting [3], `CCC1(c2ccc(C)cc2C=O)CC1` [IV.18, 2-(1-ethylcyclopropyl)-5-methylbenzaldehyde] displayed a chromatographic logP of 4.29.

`CCCC1(c2cc(Cl)ccc2C=O)CC1` [IV.19, 4-chloro-2-(1-propylcyclopropyl)benzaldehyde] displayed a chromatographic logP under setting [3] of 4.69.

On to `O=Cc1cc(Cl)ccc1C1(C(F)F)CC1` [IV.20, 5-chloro-2-[1-(difluoromethyl)cyclopropyl]benzaldehyde], for which the chromatographic logP under setting [3] amounted to 3.04.

`Cc1ccc(C2(C(F)F)CC2)c(C=O)c1` [IV.21, 2-[1-(difluoromethyl)cyclopropyl]-5-methylbenzaldehyde] yielded a chromatographic logP under setting [3] of 3.01.

The record behind these values is US10070645B2, “N-cycloalkyl-N-{[2-(1-substitutedcycloalkyl)phenyl]methylene}-(thio)carboxamide derivatives” (BAYER CROPSCIENCE AKTIENGESELLSCHAFT, priority 2013, dated 2018).
